Data published in patent US20220168384A1, “Anti-Bacterial Combination Therapy” (McMaster University, priority 2019, published 2022).

Assays:
[1] = test system: methicillin-resistant Staphylococcus aureus USA300; assay: Thiostrepton susceptibility of S. aureus in MHB versus 10:90; format: cell-based; details: both 10:90 medium and MHB
Description: The susceptibility of P. aeruginosa PA14, E. coli BW25113, A. baumannii C0286, and S. aureus USA300 was compared in MHB versus 10:90 medium. E. coli lacks FpvAB and is resistant to TS in both media.

[2] = test system: P. aeruginosa PAO1; assay: TS dose response assay (biofilm and planktonic growth); format: cell-based, Pseudomonas aeruginosa
Experimental: Briefly, P. aeruginosa was inoculated in 5 mL of LB and grown at 37° C. overnight, shaking at 200 rpm, and subsequently standardized to an OD600 of ˜ 0.1 in 10:90. For the initial screen, 1 mM compound stocks in DMSO were diluted 1:100 in standardized cell suspension (1.5 μL of compound stock in 148.5 μL of cell suspension) to a final concentration of 10 μM. Control wells contained 10:90 plus 1% DMSO (sterility control) or standardized cell suspension plus 1% DMSO (growth control). Biofilms were formed on polystyrene peg lids (Nunc). After placement of the peg lid, the plate was sealed with parafilm to prevent evaporation and incubated for 16 h at 37° C., 200 rpm. Following incubation, the 96-peg lid was removed and planktonic density in the 96 well plate measured at OD600 to assess the effect of test compounds on bacterial growth. The lid was transferred to a new microtiter plate containing 200 μl of 1× phosphate-buffered saline (PBS) per well for 10 min to wash off any loosely adherent bacterial cells, then to a microtiter plate containing 200 μL of 0.1% (wt/vol) crystal violet (CV) per well for 15 min. Following staining, the lid was washed with 70 mL of dH2O, in a single well tray, for 10 min. This step was repeated four times to ensure complete removal of excess CV. The lid was transferred to a 96-well plate containing 200 μL of 33% (vol/vol) acetic acid per well for 5 min to elute the bound CV. The absorbance of the eluted CV was measured at 600 nm (BioTek ELx800), and the results plotted as percent of the DMSO control using Prism (Graphpad). Screens were performed in duplicate. […]. Compounds of interest were further evaluated using the same assay but over a wider range of concentrations (dose-response assay). […].
For TS dose response assays, TS stock solutions were diluted in DMSO and 2 μL of the resulting solutions plus 148 μL of a bacterial suspension standardized to an OD600 of ˜0.1 in 10:90 were added to a 96 well plate in triplicate, as described above. Control wells contained 148 μL of 10:90+1.3% DMSO (sterility control) or standardized bacterial suspension+1.3% DMSO (growth control). For ethylenediamine-N,N′-bis(2-hydroxyphenylacetic acid) (EDDHA) alone or with FeCl3 experiments, 2 μL of each were added as aqueous solutions to reach final concentrations of 0.1 μM EDDHA and 100 μM FeCl3, and the amount of bacterial suspension adjusted to keep the total well volume at 150 μL. Controls for EDDHA and FeCl3 were 2 μL of sterile dH2O. Biofilms were grown for 16 h at 37° C., 200 rpm, then stained and quantified as described above. Assays were performed in triplicate and results were graphed using Prism (Graphpad) as a percentage of the DMSO control.
Deletion mutants lacking the outer membrane components of the 4 major resistance-nodulation-division (RND) efflux systems of P. aeruginosa (MexAB-OprM, MexXY-OprM, MexCD-OprJ, and MexEF-OpmD) were generated. Briefly, the pairs of primers listed in Table 3 were used to amplify regions up- and downstream of the gene to be deleted. The PCR products were digested with the restriction enzymes indicated in the primer sequences and the resulting fragments ligated into the suicide vector pEX18Gm. After DNA sequencing validation of the constructs, they were introduced into E. coli SM10 for biparental mating into P. aeruginosa PAO1. Mating mixtures were plated on Pseudomonas isolation agar containing 200 μg/ml gentamicin (Gm) to counterselect the donor. Gm-sensitive double recombinants were selected on LB agar, with no salt and with 5% (wt/vol) sucrose. Gm-sensitive deletion mutants were identified by PCR and validated by DNA sequencing of the deletion junction.

[3] = test system: P. aeruginosa clinical isolates; assay: Clinical isolates testing, P. aeruginosa; format: cell-based, Pseudomonas aeruginosa; details: Pseudomonas aeruginosa; approximately 1 in 10 of 96 clinical isolates; 10:90
Experimental: Clinical isolates of P. aeruginosa and A. baumannii were inoculated from −80° C. stocks into 200 μL LB broth and grown with shaking at 200 rpm, 16 h, 37° C. in Nunc 96-well plates. The overnight cultures were subcultured (1:25 dilution) into 10:90 and grown with shaking at 200 rpm, 2 h, 37° C. Vehicle controls consisted of 4 μL of DMSO, 144 μL 10:90 and 2 μL of subculture. Sterile controls consisted of 4 μL of DMSO and 146 μL 10:90. […]. The final volume of each well was 150 μL and each checkerboard was repeated at least three times. Plates were incubated with shaking at 200 rpm, 16 h, 37° C. and OD600 was measured (Multiskan Go—Thermo Fisher Scientific). The results were plotted as percent of control (wells containing only DMSO) using Prism (GraphPad).
Clinical isolates were grown and tested as described in Example 1. Briefly, clinical isolates were inoculated from glycerol stocks stored at −80° C. into Nunc 96-well plates and grown overnight at 37° C., for 16 h with shaking in LB (200 rpm). Overnights were subcultured (1:25) into fresh 10:90 medium and grown for 2 h under the same growth conditions. Subcultures were diluted 1:75 in fresh 10:90. Compounds were diluted 1:75 to obtain the final concentration. DOXY and CLI were added at a final concentration of 1 μg/mL, CO was used at 2 μg/mL, TRO was used at 4 μg/mL, TS was used at 8.3 μg/mL, and DSX was used at 32 μg/mL. Vehicle and sterility controls were included. Plates were incubated overnight with the same conditions. The OD600 was read (Multiscan Go—Thermo Fisher Scientific), analyzed using Excel, and the data plotted using Prism (GraphPad).
Culture conditions, checkerboard assays using P. aeruginosa PA14 and dose-response assays were performed as described in Example 1. In addition to TS, other thiopeptides tested were siomycin A (SM), thiocillin I (TC), micrococcin P1 (MC), nosiheptide (NH), berninamycin A (BER), and geninthiocin A (GEN). For dose response assays of the combinations conducted in 10:90, DSX concentration was constant at 64 μg/mL.

[4] = PAO1, 10:90 medium, dose-dependent, up to 10 μM TS

With `C=C(NC(=O)C(=C)NC(=O)c1csc(C2=N[C@@H]3c4csc(n4)[C@H]4NC(=O)c5csc(n5)[C@H]([C@](C)(O)[C@@H](C)O)NC(=O)[C@H]5CSC(=N5)/C(=C/C)NC(=O)[C@H]([C@@H](C)O)NC(=O)c5csc(n5)[C@]3(CC2)NC(=O)[C@H](C)NC(=O)C(=C)NC(=O)[C@H](C)NC(=O)[C@H]([C@@H](C)CC)N[C@@H]2C=Cc3c([C@H](C)O)cc(nc3[C@H]2O)C(=O)O[C@@H]4C)n1)C(N)=O` [TS, thiostrepton] the “TS concentration inhibiting growth” value [1] was less than 40 nM, the “planktonic cell density and biofilm stimulation with EDDHA and FeCl3” value ([2]; PAO1, 10:90 + 0.1 μM EDDHA + 100 μM FeCl3) was “increased planktonic cell density and reduced biofilm stimulation” and the “biofilm stimulation and growth inhibition with EDDHA” value ([2]; PAO1, 10:90 + 0.1 μM EDDHA versus 10:90 alone) was “shifted biofilm stimulation and growth inhibition to lower concentrations of TS”. For the same compound, the biofilm formation [2, 4] was “stimulated biofilm formation”, the planktonic cell density [2, 4] was “decreased planktonic cell density” and the “TS concentrations at which planktonic cell density decreased to below the level of detection” value ([2]; PAO1, VBMM) was greater than 0.63 µM. The “TS susceptibility on supplementation with casamino acids” value ([2]; PAO1, VBMM + 0.1% casamino acids) was “no change in TS susceptibility”, the “TS susceptibility on supplementation with MgCl2” value ([2]; PAO1, VBMM + 100 mM MgCl2) was “no effect on susceptibility” and the “TS susceptibility of mutants lacking the major efflux pumps” value ([2]; PAO1 efflux deletion mutants) was “near-wild-type susceptibility”. For the same compound, the “TS susceptibility on deletion of peptide transport systems” value ([2]; simultaneous deletion of components of Opp (Npp) and Spp) was “no effect on TS susceptibility” and the MIC [3] was no less than 5 µM.
